Common to all, as to assay: relative viability (nuclei count vs DMSO), 5 days (fraction); higher = more cells survive
Compound in assay [1]: C1CSC2=C(C(=O)N1)SC3=C2C=C(C=C3)O [kb NB 142-70] + CCNC(=O)c1noc(-c2cc(C(C)C)c(O)cc2O)c1-c1ccc(CN2CCOCC2)cc1 [Luminespib] (partner 0.01 µM)
The essentials:
(§1)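 Five library-drug doses in √10 steps were combined with a fixed anchor-drug dose, or a single drug was given alone, by pin tool to lung cancer cell lines in 1536-well plates the day after seeding. Nuclei were stained and counted after 5 days. Relative viability is the nuclei count in treated wells over that in vehicle wells, taken as the median of duplicate plates.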

Compound in assay [2]: NCC(=O)Nc1ccc(-n2nc(C(F)(F)F)cc2-c2ccc3c(ccc4ccccc43)c2)cc1 + C[C@]1(O)C[C@@H](c2nc(-c3ccc4ccc(-c5ccccc5)nc4c3)c3c(N)nccn32)C1 [Linsitinib] (partner 1 µM)
The essentials: as §1

Compound in assay [3]: C1CSC2=C(C(=O)N1)SC3=C2C=C(C=C3)O [kb NB 142-70] + Nc1nc2[nH]cc(CCc3ccc(C(=O)N[C@@H](CCC(=O)O)C(=O)O)cc3)c2c(=O)[nH]1 [Pemetrexed] (partner 0.2 µM)
The essentials:
as §1

Compound in assay [4]: C1CSC2=C(C(=O)N1)SC3=C2C=C(C=C3)O [kb NB 142-70] + C[C@@H](Oc1cc(-c2cnn(C3CCNCC3)c2)cnc1N)c1c(Cl)ccc(F)c1Cl [Crizotinib] (partner 1 µM)
The essentials:
as §1

Compound in assay [5]: NCC(=O)Nc1ccc(-n2nc(C(F)(F)F)cc2-c2ccc3c(ccc4ccccc43)c2)cc1 + CC(C)C[C@H](NC(=O)[C@H](Cc1ccccc1)NC(=O)c1cnccn1)B(O)O [Bortezomib] (partner 0.002 µM)
The essentials:
as §1

Take NCI-H358: the relative viability in assay [1] (first compound 0.1 µM) came to 0.278; in assay [1] (first compound 1 µM), 0.152; in assay [1] (first compound 3.162 µM) it was 0.148; in assay [2] (first compound 0.02 µM), 0.807; in assay [2] (first compound 0.06325 µM) it was 0.8; in assay [2] (first compound 0.2 µM), 0.72. In addition, the relative viability was found to be 0.868 in assay [2] (first compound 0.6325 µM); 0.737 in assay [2] (first compound 2 µM); 0.175 in assay [3] (first compound 0.1 µM); 0.141 in assay [3] (first compound 1 µM); 0.114 in assay [3] (first compound 3.162 µM); 0.481 in assay [4] (first compound 0.1 µM). The relative viability in assay [4] (first compound 1 µM) was found to be 0.493; in assay [4] (first compound 3.162 µM) it was 0.136.

With NCI-H522, the relative viability in assay [1] (first compound 0.1 µM) was determined as 1.18; in assay [1] (first compound 1 µM), 1.03; in assay [1] (first compound 3.162 µM), 0.974; in assay [3] (first compound 0.1 µM), 1.03; in assay [3] (first compound 1 µM), 0.871; in assay [3] (first compound 3.162 µM), 0.745.

In the case of NCI-H727, the relative viability came out at 0.226 in assay [1] (first compound 0.1 µM); 0.346 in assay [1] (first compound 1 µM); 0.42 in assay [1] (first compound 3.162 µM); 0.849 in assay [5] (first compound 0.02 µM); 0.977 in assay [5] (first compound 0.06325 µM); 0.724 in assay [5] (first compound 0.2 µM). Also, the relative viability was 0.847 in assay [5] (first compound 0.6325 µM); 1.04 in assay [5] (first compound 2 µM); 0.297 in assay [2] (first compound 0.02 µM); 0.275 in assay [2] (first compound 0.06325 µM); 0.377 in assay [2] (first compound 0.2 µM); 0.352 in assay [2] (first compound 0.6325 µM). Moreover, the relative viability in assay [2] (first compound 2 µM) stood at 0.493; in assay [4] (first compound 0.1 µM), 0.752; in assay [4] (first compound 1 µM), 1.06; in assay [4] (first compound 3.162 µM), 0.592.

Take NCI-H1299: the relative viability in assay [5] (first compound 0.02 µM) stood at 0.992; in assay [5] (first compound 0.06325 µM), 1.03; in assay [5] (first compound 0.2 µM), 1.1; in assay [5] (first compound 0.6325 µM), 0.972; in assay [5] (first compound 2 µM), 1.04; in assay [2] (first compound 0.02 µM), 0.937. Besides, the relative viability amounted to 0.971 in assay [2] (first compound 0.06325 µM); 1.05 in assay [2] (first compound 0.2 µM); 0.929 in assay [2] (first compound 0.6325 µM); 0.999 in assay [2] (first compound 2 µM); 0.928 in assay [4] (first compound 0.1 µM); 0.969 in assay [4] (first compound 1 µM). In addition, the relative viability in assay [4] (first compound 3.162 µM) amounted to 0.893.

For the cell line NCI-H1395, the relative viability in assay [1] (first compound 0.1 µM) stood at 0.79; in assay [1] (first compound 1 µM), 0.69; in assay [1] (first compound 3.162 µM), 0.464; in assay [2] (first compound 0.02 µM) it was 0.997; in assay [2] (first compound 0.06325 µM), 0.986; in assay [2] (first compound 0.2 µM) it was 1.15. Further, the relative viability in assay [2] (first compound 0.6325 µM) was 1.06; in assay [2] (first compound 2 µM), 1.18; in assay [3] (first compound 0.1 µM), 0.915; in assay [3] (first compound 1 µM), 0.872; in assay [3] (first compound 3.162 µM), 0.833.

Take NCI-H1648: the relative viability is 0.731 in assay [3] (first compound 0.1 µM), 0.763 in assay [3] (first compound 1 µM) and 0.932 in assay [3] (first compound 3.162 µM).

As for NCI-H1650, the relative viability in assay [1] (first compound 0.1 µM) stood at 0.204; in assay [1] (first compound 1 µM), 0.19; in assay [1] (first compound 3.162 µM), 0.18; in assay [5] (first compound 0.02 µM), 0.235; in assay [5] (first compound 0.06325 µM), 0.215; in assay [5] (first compound 0.2 µM), 0.188. Moreover, the relative viability in assay [5] (first compound 0.6325 µM) came to 0.191; in assay [5] (first compound 2 µM), 0.195; in assay [3] (first compound 0.1 µM) it was 0.315; in assay [3] (first compound 1 µM), 0.419; in assay [3] (first compound 3.162 µM), 0.481; in assay [4] (first compound 0.1 µM), 0.833. Also, the relative viability in assay [4] (first compound 1 µM) amounted to 1.01; in assay [4] (first compound 3.162 µM), 1.08.

With NCI-H1703, the relative viability in assay [5] (first compound 0.02 µM) is 0.278; in assay [5] (first compound 0.06325 µM) it was 0.237; in assay [5] (first compound 0.2 µM) it was 0.307; in assay [5] (first compound 0.6325 µM), 0.215; in assay [5] (first compound 2 µM), 0.344; in assay [2] (first compound 0.02 µM), 0.718. Moreover, the relative viability in assay [2] (first compound 0.06325 µM) was 0.781; in assay [2] (first compound 0.2 µM) it was 0.52; in assay [2] (first compound 0.6325 µM) it was 0.691; in assay [2] (first compound 2 µM) it was 0.591; in assay [4] (first compound 0.1 µM), 0.681; in assay [4] (first compound 1 µM), 0.866. For the same cell line, in assay [4] (first compound 3.162 µM), the relative viability is 0.489.

As for NCI-H1793, the relative viability was determined as 0.188 in assay [1] (first compound 0.1 µM); 0.179 in assay [1] (first compound 1 µM); 0.153 in assay [1] (first compound 3.162 µM); 0.826 in assay [2] (first compound 0.02 µM); 0.799 in assay [2] (first compound 0.06325 µM); 0.893 in assay [2] (first compound 0.2 µM). In addition, the relative viability in assay [2] (first compound 0.6325 µM) came out at 0.966; in assay [2] (first compound 2 µM), 0.962; in assay [3] (first compound 0.1 µM), 0.73; in assay [3] (first compound 1 µM) it was 0.902; in assay [3] (first compound 3.162 µM) it was 0.609.

NCI-H1944: the relative viability in assay [1] (first compound 0.1 µM) worked out at 0.708; in assay [1] (first compound 1 µM) it was 0.726; in assay [1] (first compound 3.162 µM), 0.8; in assay [2] (first compound 0.02 µM), 1.14; in assay [2] (first compound 0.06325 µM) it was 1.21; in assay [2] (first compound 0.2 µM) it was 1.16. For the same cell line, the relative viability was found to be 1.11 in assay [2] (first compound 0.6325 µM); 1.3 in assay [2] (first compound 2 µM); 0.633 in assay [3] (first compound 0.1 µM); 0.757 in assay [3] (first compound 1 µM); 0.665 in assay [3] (first compound 3.162 µM); 1.02 in assay [4] (first compound 0.1 µM). For the same cell line, the relative viability came to 1.31 in assay [4] (first compound 1 µM) and 1.23 in assay [4] (first compound 3.162 µM).

In the case of NCI-H2170, the relative viability in assay [1] (first compound 0.1 µM) turned out to be 0.578; in assay [1] (first compound 1 µM) it was 0.728; in assay [1] (first compound 3.162 µM), 0.521; in assay [3] (first compound 0.1 µM), 0.273; in assay [3] (first compound 1 µM), 0.296; in assay [3] (first compound 3.162 µM), 0.333. The relative viability was determined as 1.21 in assay [4] (first compound 0.1 µM), 1.22 in assay [4] (first compound 1 µM) and 1.04 in assay [4] (first compound 3.162 µM).

Turning to NCI-H2342, the relative viability in assay [1] (first compound 0.1 µM) amounted to 0.625; in assay [1] (first compound 1 µM), 0.761; in assay [1] (first compound 3.162 µM), 0.719; in assay [3] (first compound 0.1 µM), 0.781; in assay [3] (first compound 1 µM), 0.774; in assay [3] (first compound 3.162 µM), 0.697.

For the cell line SK-MES-1, the relative viability is 0.84 in assay [1] (first compound 0.1 µM); 0.743 in assay [1] (first compound 1 µM); 0.35 in assay [1] (first compound 3.162 µM); 1.08 in assay [2] (first compound 0.02 µM); 1.03 in assay [2] (first compound 0.06325 µM); 1.11 in assay [2] (first compound 0.2 µM). Besides, the relative viability in assay [2] (first compound 0.6325 µM) turned out to be 0.997; in assay [2] (first compound 2 µM) it was 1.17; in assay [3] (first compound 0.1 µM) it was 1; in assay [3] (first compound 1 µM) it was 1.11; in assay [3] (first compound 3.162 µM), 0.548; in assay [4] (first compound 0.1 µM), 1.01. Further, the relative viability in assay [4] (first compound 1 µM) turned out to be 1.02; in assay [4] (first compound 3.162 µM), 0.72.

For the cell line SW 900, the relative viability in assay [1] (first compound 0.1 µM) was 0.187; in assay [1] (first compound 1 µM), 0.181; in assay [1] (first compound 3.162 µM), 0.177; in assay [3] (first compound 0.1 µM), 0.451; in assay [3] (first compound 1 µM), 0.523; in assay [3] (first compound 3.162 µM), 0.468.

The values above are taken from the supplement of paper PMC10307832.
